Several values for one entry are separate records, joined by “and”; a condition that tells them apart may be missing. Equal values may be shown once. Entries after “also recorded” stand apart in the source; their conditions may differ. Peptide text beside a SMILES is read from it.
Legend:
GABAB receptor = target: T1, GABAB receptor (Rattus norvegicus, UniProt O88871+Q9Z0U4); details: rat neocortical slices; cited from earlier work
T1 construct: GABAB receptor-mediated hyperpolarizing responses to baclofen in rat neocortical slices (Kerr, 2003); host or cells: rat neocortical slices (tissue, endogenous receptor)
T1 sequence (O88871 41-940): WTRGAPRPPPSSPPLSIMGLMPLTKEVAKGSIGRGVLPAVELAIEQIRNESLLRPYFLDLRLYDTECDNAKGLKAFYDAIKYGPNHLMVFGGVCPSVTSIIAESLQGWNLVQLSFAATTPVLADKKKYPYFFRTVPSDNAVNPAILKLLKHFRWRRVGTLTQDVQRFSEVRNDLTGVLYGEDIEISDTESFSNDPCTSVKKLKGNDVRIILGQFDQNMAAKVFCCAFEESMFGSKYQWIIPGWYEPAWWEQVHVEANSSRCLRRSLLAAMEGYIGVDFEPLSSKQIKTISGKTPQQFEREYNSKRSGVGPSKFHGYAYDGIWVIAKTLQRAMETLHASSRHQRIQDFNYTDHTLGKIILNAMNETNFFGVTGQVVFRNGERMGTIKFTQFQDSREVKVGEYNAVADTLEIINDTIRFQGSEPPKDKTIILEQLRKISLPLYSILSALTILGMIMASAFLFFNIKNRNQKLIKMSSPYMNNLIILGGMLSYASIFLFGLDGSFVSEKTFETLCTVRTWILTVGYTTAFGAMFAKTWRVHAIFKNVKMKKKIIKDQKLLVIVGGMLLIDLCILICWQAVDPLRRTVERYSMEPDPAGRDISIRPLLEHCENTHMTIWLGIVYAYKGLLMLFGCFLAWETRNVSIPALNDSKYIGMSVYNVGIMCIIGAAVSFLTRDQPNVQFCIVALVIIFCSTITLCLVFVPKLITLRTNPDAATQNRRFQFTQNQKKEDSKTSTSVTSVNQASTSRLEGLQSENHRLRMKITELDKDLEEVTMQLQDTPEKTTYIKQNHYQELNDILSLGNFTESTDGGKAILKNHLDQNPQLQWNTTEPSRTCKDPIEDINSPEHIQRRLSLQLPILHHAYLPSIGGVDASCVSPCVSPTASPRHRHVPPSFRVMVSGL
T1 sequence (Q9Z0U4 17-960): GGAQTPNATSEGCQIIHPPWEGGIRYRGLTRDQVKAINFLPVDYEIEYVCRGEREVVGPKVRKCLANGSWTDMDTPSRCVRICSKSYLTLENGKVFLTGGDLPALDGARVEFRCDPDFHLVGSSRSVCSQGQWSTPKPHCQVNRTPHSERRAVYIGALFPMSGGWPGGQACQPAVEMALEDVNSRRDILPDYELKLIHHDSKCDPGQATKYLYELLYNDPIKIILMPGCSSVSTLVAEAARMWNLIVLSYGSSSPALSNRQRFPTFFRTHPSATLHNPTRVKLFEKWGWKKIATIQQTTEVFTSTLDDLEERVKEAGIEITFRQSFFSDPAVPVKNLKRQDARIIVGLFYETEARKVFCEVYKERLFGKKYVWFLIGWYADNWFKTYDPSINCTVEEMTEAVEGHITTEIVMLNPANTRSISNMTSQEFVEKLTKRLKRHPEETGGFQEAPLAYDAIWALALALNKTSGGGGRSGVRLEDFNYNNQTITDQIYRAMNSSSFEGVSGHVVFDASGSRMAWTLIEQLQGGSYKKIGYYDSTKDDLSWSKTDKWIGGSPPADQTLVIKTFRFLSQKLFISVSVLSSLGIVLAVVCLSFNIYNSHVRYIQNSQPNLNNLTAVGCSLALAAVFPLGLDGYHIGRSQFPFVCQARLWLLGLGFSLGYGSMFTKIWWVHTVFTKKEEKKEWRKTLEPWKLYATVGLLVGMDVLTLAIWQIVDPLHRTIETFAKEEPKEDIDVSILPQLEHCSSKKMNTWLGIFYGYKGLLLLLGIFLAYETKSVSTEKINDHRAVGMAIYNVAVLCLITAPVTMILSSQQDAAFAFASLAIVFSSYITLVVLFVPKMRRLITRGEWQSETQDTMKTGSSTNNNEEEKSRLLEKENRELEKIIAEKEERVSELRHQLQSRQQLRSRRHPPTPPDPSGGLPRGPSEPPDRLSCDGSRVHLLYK

[1] = system: presynaptic terminals of cultured hippocampal neurons; experiment: TBS-induced presynaptic plasticity measured by FM 1-43 dye uptake in hippocampal cultures; format: cell-based, rat; details: for TBS-induced potentiation / plasticity after prolonged treatment: 48 hours of incubation
[2] = target: NMDA receptors (NR2B-containing) (Rattus norvegicus, UniProt P35439+Q00960); experiment: evoked NMDA currents ([…]), double-perforated patch; format: cell-based
Chain of NMDA receptors (NR2B-containing) (Q00960 27-1482, other chains not shown): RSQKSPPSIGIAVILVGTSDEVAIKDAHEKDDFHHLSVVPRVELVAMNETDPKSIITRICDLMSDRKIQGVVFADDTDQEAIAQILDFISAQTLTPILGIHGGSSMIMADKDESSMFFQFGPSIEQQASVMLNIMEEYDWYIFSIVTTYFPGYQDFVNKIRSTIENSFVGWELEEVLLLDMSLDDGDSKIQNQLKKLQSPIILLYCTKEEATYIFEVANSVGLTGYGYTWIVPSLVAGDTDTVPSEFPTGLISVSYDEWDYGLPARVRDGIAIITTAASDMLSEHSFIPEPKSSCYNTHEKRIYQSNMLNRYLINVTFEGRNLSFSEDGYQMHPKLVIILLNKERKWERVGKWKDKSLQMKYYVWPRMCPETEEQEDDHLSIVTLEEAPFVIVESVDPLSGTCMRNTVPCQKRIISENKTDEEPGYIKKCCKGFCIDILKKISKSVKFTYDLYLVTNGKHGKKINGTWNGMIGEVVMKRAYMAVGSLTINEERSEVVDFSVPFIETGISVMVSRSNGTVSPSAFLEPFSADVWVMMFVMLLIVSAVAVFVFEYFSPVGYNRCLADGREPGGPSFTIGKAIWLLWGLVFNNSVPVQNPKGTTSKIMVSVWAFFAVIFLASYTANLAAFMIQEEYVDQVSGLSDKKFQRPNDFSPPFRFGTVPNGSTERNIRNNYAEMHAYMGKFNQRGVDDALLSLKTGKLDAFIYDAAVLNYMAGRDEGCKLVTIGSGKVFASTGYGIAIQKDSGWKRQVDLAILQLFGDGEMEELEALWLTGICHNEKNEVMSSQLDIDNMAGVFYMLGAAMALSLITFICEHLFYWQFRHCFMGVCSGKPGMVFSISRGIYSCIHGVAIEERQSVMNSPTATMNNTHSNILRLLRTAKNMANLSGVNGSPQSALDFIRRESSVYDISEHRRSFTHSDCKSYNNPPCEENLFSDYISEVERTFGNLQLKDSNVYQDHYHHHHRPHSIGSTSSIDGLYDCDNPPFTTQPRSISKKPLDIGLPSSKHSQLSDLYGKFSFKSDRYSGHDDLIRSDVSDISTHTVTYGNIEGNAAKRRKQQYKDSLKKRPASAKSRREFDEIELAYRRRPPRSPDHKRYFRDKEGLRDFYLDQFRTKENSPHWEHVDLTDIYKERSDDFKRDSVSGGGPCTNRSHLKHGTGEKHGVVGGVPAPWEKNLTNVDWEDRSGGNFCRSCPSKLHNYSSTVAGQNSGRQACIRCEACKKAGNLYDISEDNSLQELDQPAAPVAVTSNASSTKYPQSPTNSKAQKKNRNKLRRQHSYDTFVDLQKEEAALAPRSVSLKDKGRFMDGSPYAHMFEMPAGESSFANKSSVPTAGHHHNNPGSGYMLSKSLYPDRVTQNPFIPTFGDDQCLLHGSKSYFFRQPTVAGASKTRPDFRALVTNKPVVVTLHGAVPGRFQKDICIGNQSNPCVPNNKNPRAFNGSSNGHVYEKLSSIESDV
Experimental: (§1) Electrophysiology. Dual whole cell perforated patch clamp recordings were made on two interconnected cultured hippocampal pyramidal neurons. Perforated patch pipettes were front-filled with a solution containing (in mM): CsOH, 127; D-gluconic acid, 127; CsCl, 4; HEPES, 10; NaCl, 8; EGTA, 0.4; pH was adjusted to 7.25 with CsOH, and then back-filled with the same solution containing […] amphotericin B (Sigma, St. Louis, Mo.). Extracellular solution contained (in mM): NaCl, 145; KCl, 3; glucose, 15; HEPES, 10; MgCl2, 0.8-1.2; CaCl2, 1.2; 0.005 glycine (Sigma), 0.05 picrotoxin (Sigma); pH adjusted to 7.4 with NaOH. MgCl2 concentration was matched to its concentration in culture medium. In experiments where effects of drugs on neuronal activity were quantified (FIG. 4D), recordings were done in culture medium (with HEPES replacing bicarbonate/CO2 to maintain pH). All experiments were performed at room temperature. For assaying synaptic connectivity, each neuron was stimulated by 1 ms step depolarization from −70 to +30 mV in voltage-clamp mode. Only neurons with monosynaptic connections were used. […] Recordings with access resistance>20 MΩ or that varied substantially were rejected from analysis.
We hypothesized that one target may be the number and properties of NMDA receptors at individual synapses.

[3] = system: excitatory and inhibitory terminals; details: short treatment (2-24 hr)
[4] = system: cultured hippocampal neurons; experiment: control recordings of membrane potential, synaptic inputs and firing; format: cell-based, rat; details: treatments of FIG. 5D
Experimental: as §1

[5] = system: postsynaptic locations of cultured hippocampal neurons; experiment: postsynaptic evoked current response to iontophoretic glutamate (AMPA-R insertion); format: cell-based, rat; details: Mg^++-treated culture; reversed by washout
Excerpt: These were generally as described in the preceding examples. Glutamatergic iontophoresis was perfomed as described [Murnick 2000].
Since we wished to correlate the above pre-synaptic findings to the plasticity of single or small clusters of postsynaptic locations, this ruled out traditional double-patch plasticity experiments in which heterogeneous populations of connections are studied. Such studies also usually confound pre-synaptic and postsynaptic effects. For this purpose, we developed a technique of high-temporal and spatial resolution glutamatergic iontophoresis that allows us to stimulate single or small clusters of postsynaptic locations (resolution ˜2 μm, 1 ms; [Murnick 2000]).
To determine whether a decrease in overall activity of a neural network leads to increased plasticity (i.e., an increase in synaptic strength in response to a pattern of stimulation) of postsynaptic locations, we assessed the effect of treatment with Mg^++ on the ability of postsynaptic locations to respond to glutamate. As described above, Mg^++ blocks the NMDA receptor channel at resting membrane potential, so Mg^++ treatment reduces the overall activity level of the neural network. As also described above, increases in postsynaptic intracellular Ca^++ stimulated by activation of NMDA receptors leads to recruitment of AMPA receptors and their insertion into the postsynaptic membrane. […]

[6] = system: structural synaptic terminals; experiment: FM dye uptake of structural synaptic terminals, 30 AP protocol; format: cell-based, rat; details: 100 ng/ml BDNF
Experimental: FM 1-43 Loading and Destaining. Functional presynaptic boutons were stained with 10 μM FM 1-43 (synaptogreen, Biotium) by eliciting 30 APs at 0.5-1 Hz. This loading protocol was chosen to avoid short-term plasticity and “re-use” of vesicles through “kiss-run” mode of exocytosis (Aravanis et al., 2003). The neurons were stimulated to fire action potentials by passing 1 ms 50 mA current through platinum electrodes placed at a distance of 7 mm from both sides of the chamber. To ensure reliable action potential initiation, the current amplitude was chosen to be 50% above the threshold for action potential generation, as confirmed by whole-cell patch clamp recording. To prevent recurrent activity, excitatory postsynaptic responses were blocked completely by the addition of DL-AP5 (50 μM, Sigma) and NBQX (10 μM, Sigma) during FM loading and unloading procedures. […]
To further determine the number of these very low Pr terminals and their proportion to the whole population of functional synaptic terminals, we compared the co-localization of FM puncta obtained for the 30 AP loading with puncta obtained using fluorescent antibodies against specific presynaptic proteins. […] Twenty percent more functional synapses were detected by this procedure, also consistent with a previous report (Murthy et al., 1997). […]

CC(C)C[C@H](N)C(=O)O [L-Leu]
potency as potentiator of GABAB receptor-mediated hyperpolarizing responses to baclofen (GABAB receptor): Most potent

N[C@@H](Cc1ccccc1)C(=O)N[C@@H](Cc1ccccc1)C(=O)O [L-Phe-Phe] (H-Phe-Phe-OH)
potency as potentiator of GABAB receptor-mediated hyperpolarizing responses to baclofen (GABAB receptor): Most potent

N[C@@H](CS)C(=O)O [L-Cys]
potency as potentiator of GABAB receptor-mediated hyperpolarizing responses to baclofen (GABAB receptor): less potent

CC(C(O)c1ccc(O)cc1)N1CCC(Cc2ccccc2)CC1 (stereo not drawn) [ifenprodil]
reduction of TBS-induced presynaptic potentiation ([1]; 1 μM ifenprodil, 1.2 mM Mg^2+ cultures): 50% and 48±7% | reduction of current [2]: 53% | reduction of total charge transfer [2]: 85% and 45% | reduction of total charge transfer of EPSCNMDA [2]: 80% and 45% and 45±2%

L-Ile
potency as potentiator of GABAB receptor-mediated hyperpolarizing responses to baclofen (GABAB receptor): Most potent

NS(=O)(=O)c1cccc2c1c([N+](=O)[O-])cc1nc(O)c(O)nc12 [NBQX, reference compound]
TBS-induced potentiation / plasticity after prolonged treatment [1]: no significant TBS-induced potentiation; also recorded: lose plasticity | change of synaptic density [3]: No short treatment (2-24 hr, baclofen, nimodepine, NBQX, and TTX) produced a significant change of synaptic density

CC(C)[C@H](N)C(=O)O [L-Val]
potency as potentiator of GABAB receptor-mediated hyperpolarizing responses to baclofen (GABAB receptor): less potent

C[C@@H](O)[C@H](N)C(=O)O [L-Thr]
potency as potentiator of GABAB receptor-mediated hyperpolarizing responses to baclofen (GABAB receptor): less potent

CSCC[C@H](N)C(=O)O [L-Met]
potency as potentiator of GABAB receptor-mediated hyperpolarizing responses to baclofen (GABAB receptor): less potent

CN1C(=O)CN=C(c2ccccc2F)c2cc([N+](=O)[O-])ccc21 [flunitrazepam, reference compound]
TBS-induced potentiation / plasticity after prolonged treatment [1]: no significant TBS-induced potentiation; also recorded: lose plasticity

[Zn+2] [Zn^++]
plasticity of presynaptic terminals after partial block of Ca flux ([1]; 0.4 mM Mg^++ added or 5 mM Zn^++ two weeks, 10 mM nimodipine 2 days): significant increases of plasticity | optimal concentration for plasticity (maximal potentiability) ([1]; 2 weeks treatment): 2 mM | increase of synaptic strength at optimum concentration ([1]; FIGS. 6H-6J): up to approximately five-fold | change in average firing rates of neurons within cultured neural networks [4]: none of these treatments induces a significant change

N[C@@H](CO)C(=O)O [L-Ser]
potency as potentiator of GABAB receptor-mediated hyperpolarizing responses to baclofen (GABAB receptor): less potent

N=C(N)NCCC[C@H](N)C(=O)O [L-Arg]
potency as potentiator of GABAB receptor-mediated hyperpolarizing responses to baclofen (GABAB receptor): less potent

CC(C)C[C@H](NC(=O)[C@@H](N)Cc1ccccc1)C(=O)O [L-Phe-Leu] (H-Phe-Leu-OH)
potency as potentiator of GABAB receptor-mediated hyperpolarizing responses to baclofen (GABAB receptor): Most potent

N[C@@H](CSSC[C@H](N)C(=O)O)C(=O)O [L-Cystine]
potency as potentiator of GABAB receptor-mediated hyperpolarizing responses to baclofen (GABAB receptor): less potent

N[C@@H](Cc1ccccc1)C(=O)O [L-Phe]
potency as potentiator of GABAB receptor-mediated hyperpolarizing responses to baclofen (GABAB receptor): Most potent

D-AP5 [reference compound]
theta-burst-induced changes of Pr (F2/F1, N2/N1, S2/S1) in presence of NMDAR blocker [1]: No detectable changes of Pr | effect of NMDA antagonist on the increase in postsynaptic current [5]: blocked it

N[C@@H](Cc1ccc(O)cc1)C(=O)O [L-Tyr]
potency as potentiator of GABAB receptor-mediated hyperpolarizing responses to baclofen (GABAB receptor): less potent

B1: BDNF: neurotrophin known to increase the Pr of synaptic terminals (protein, UniProt P23560 19-247, looked up)
Neurotrophic factor BDNF …: APMKEANIRGQGGLAYPGVRTHGTLESVNGPKAGSRGLTSLADTFEHVIEELLDEDQKVRPNEENNKDADLYTSRVMLSSQVPLEPPLLFLLEEYKNYLDAANMSMRVRRHSDPARRGELSVCDSISEWVTAADKKTAVDMSGGTVTVLEKVPVSKGQLKQYFYETKCNPMGYTKEGCRGIDKRHWNSQCRTTQSYVRALTMDSKKRIGWRFIRIDTSCVCTLTIKRGR
FM dye uptake by structural synaptic terminals [6]: all structural synaptic terminals became capable of taking up FM dye

From US20060089335A1, “Compositions and methods for enhancing cognitive function and synaptic plasticity” (priority 2003, published 2006)
